According to PMC4604124, “In Vitro Characterization of the Pharmacological Properties of the Anti-Cancer Chelator, Bp4eT, and Its Phase I Metabolites” (PLoS ONE, 2015):
“And” between values parts separate entries of the source, which are not always exact repeats. Equal values may be shown once. Read-outs that look alike come from different tables or passages of the source.

Experiments:
H9c2 cardiomyoblasts = test: MTT cytotoxicity assay, H9c2 cells; type: cell-based, rat; details: for IC50: MTT, read-out: IC50
Experimental: For cytotoxicity experiments, cancer cells were seeded at a density of 5,000 (MCF-7), 10,000 (HL-60) or 2,000 cells/well (HCT116 and A549) in 96-well plates (TPP) for 24 h/37°C prior to the addition of examined agents. The non-cancerous cells, 3T3 and H9c2 cells, were cultured for 24 h/37°C in 96-well plates at a density of 10,000 cells/well, the medium was then changed to serum- and pyruvate-free DMEM (Sigma-Aldrich) and incubated with the cells for another 24 h/37°C. The cytotoxic effects of Bp4eT and its metabolites were studied at different concentrations after a 72 h/37°C incubation. In order to aid the dissolution of the lipophilic ligands, 0.1% dimethyl sulfoxide (v/v) (DMSO; Sigma-Aldrich) was present in the culture medium of all groups. At this concentration, DMSO had no effect on cellular proliferation or viability.
The viability of cells were determined using an MTT assay (Sigma-Aldrich) according to previously established methods. The optical density of soluble MTT was measured at λ = 570 nm, subtracting the λ = 690 nm background using a Tecan Infinite 200M plate reader (Tecan Group, Männedorf, Switzerland). The viability or proliferation of experimental groups was expressed as a percentage of the untreated controls (100%).
SigmaStat for Windows 3.5 (Systat Software, San Jose, CA, USA) statistical software package was utilized to analyze results. The data are expressed as the mean ± SD of a given number of experiments. Statistical significance was determined using a one-way ANOVA with a Bonferroni post-hoc test or Student’s t-test. The results were considered to be statistically significant when p < 0.05. The IC50 values were calculated using CalcuSyn 2.0 software (Biosoft, Cambridge, UK). Cell cycle analysis was evaluated using MultiCycle AV Software (Phoenix Flow Systems, San Diego, CA, USA).

[1] = Ascorbate oxidation assay (redox activity of iron complexes); type: biochemical;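 as to %Fe 30min (ascorbate oxidation, Fe 100%), průměr: IBE 3 means excess free chelator over iron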;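 as to %Fe 30min (ascorbate oxidation, Fe 100%): IBE 3 means excess free chelator over iron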;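 as to %Fe 30min (ascorbate oxidation, Fe = 100%), průměr (mean): IBE 1 means iron-binding equivalents giving fully coordinated iron-chelator complexes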;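 as to %Fe 30min (ascorbate oxidation, Fe = 100%), single replicates: IBE 1 means iron-binding equivalents giving fully coordinated iron-chelator complexes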;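 as to %Fe 30min: ascorbate oxidation as % of the Fe control (Fe 100%): IBE 0.1 means iron-binding equivalents with iron in excess over chelator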;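 as to Change of absorbance, odečet 0 (time 0 subtracted), čas 10, průměr: IBE 3 means excess free chelator over 10 µM FeCl3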;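 as to Change of absorbance, odečet 0 (time 0 subtracted), čas 10: IBE 3 means excess free chelator over 10 µM FeCl3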;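 as to Change of absorbance, odečet 0 (time 0 subtracted), čas 20, průměr: 100 µM ascorbate with 10 µM FeCl3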;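 as to Change of absorbance, odečet 0 (time 0 subtracted), čas 20: 100 µM ascorbate with 10 µM FeCl3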;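 as to Change of absorbance, odečet 0 (time 0 subtracted), čas 30, průměr: 100 µM ascorbate with 10 µM FeCl3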;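 as to Change of absorbance, odečet 0 (time 0 subtracted), čas 30: 100 µM ascorbate with 10 µM FeCl3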;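 as to odečet 0 (reading minus time 0 reading) at čas 20, single replicates: IBE 1 means fully coordinated iron chelator complexes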;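 as to odečet 0 (reading minus time 0 reading) at čas 30, průměr (mean): IBE 1 means fully coordinated iron chelator complexes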;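 as to odečet 0 (reading minus time 0 reading) at čas 30, single replicates: IBE 1 means fully coordinated iron chelator complexes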;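 as to raw reading at čas 20 (time 20), průměr (mean): IBE 1 means fully coordinated iron chelator complexes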;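 as to raw reading at čas 20 (time 20), single replicates: IBE 1 means fully coordinated iron chelator complexes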;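 as to raw reading at čas 30 (time 30), průměr (mean): IBE 1 means fully coordinated iron chelator complexes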;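 as to raw reading at čas 30 (time 30), single replicates: IBE 1 means fully coordinated iron chelator complexes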
[2] = sheet IBE 1, time 10, replicates
[3] = sheet IBE 1, time 20, replicates
[4] = sheet IBE 1, time 30, replicates

SMILES: CCNC(=S)NN=C(c1ccccc1)c1ccccn1 [Bp4eT, 2-benzoylpyridine 4-ethyl-3-thiosemicarbazone]
- MTT, relative to control (0 = 100) (H9c2 cardiomyoblasts; H9c2, 10 000 b/j, 1000 nM, průměr (mean)): 35.85
- MTT, relative to control (0 = 100) (H9c2 cardiomyoblasts; H9c2, 10 000 b/j, 1000 nM, single experiment (date)): 36.8685 and 33.593 and 34.7888 and 38.1329
- MTT, relative to control (0 = 100) (H9c2 cardiomyoblasts; H9c2, 10 000 b/j, 3000 nM, průměr (mean)): 31.03
- MTT, relative to control (0 = 100) (H9c2 cardiomyoblasts; H9c2, 10 000 b/j, 3000 nM, single experiment (date)): 33.7493 and 30.5962 and 27.1956 and 32.5967
- IC50 (H9c2 cardiomyoblasts; H9c2, 10 000 b/j, single experiment (date)): 360 nM and 438 nM and 587 nM
- IC50 (H9c2 cardiomyoblasts; Rattus norvegicus, H9c2, 72 h, H9c2, 72 h/37°C, mean ± SD, n ≥ 4): 524 ± 157 nM
- IC50 (H9c2 cardiomyoblasts; Rattus norvegicus, H9c2, H9c2, 10 000 b/j, průměr (mean)): 524 nM
- IC50 (H9c2 cardiomyoblasts; Rattus norvegicus, H9c2, H9c2, 10 000 b/j, single experiment (date)): 713 nM
- %Fe 30min: ascorbate oxidation as % of the Fe control (Fe 100%) ([1]; IBE 0.1, 30 min, mean (průměr)): 114.3%
- Change of absorbance after subtraction of time 0 (odečet 0) ([1]; IBE 0.1, time 10, mean (průměr)): -0.04348
- Change of absorbance after subtraction of time 0 (odečet 0) ([1]; IBE 0.1, time 20, mean (průměr)): -0.0765
- Change of absorbance after subtraction of time 0 (odečet 0) ([1]; IBE 0.1, time 30, mean (průměr)): -0.108
- Absorbance (ascorbate, λ = 265 nm) ([1]; IBE 0.1, čas 0 (time 0), mean (průměr)): 0.839
- Absorbance (ascorbate, λ = 265 nm) ([1]; IBE 0.1, čas 10 (time 10), mean (průměr)): 0.7956
- Absorbance (ascorbate, λ = 265 nm) ([1]; IBE 0.1, čas 20 (time 20), mean (průměr)): 0.7625
- Absorbance (ascorbate, λ = 265 nm) ([1]; IBE 0.1, čas 30 (time 30), mean (průměr)): 0.731
- Ascorbate oxidation, % of the control ([1]; IBE 1): significant (p < 0.001) increase
- Ascorbate oxidation, % of the control ([1]; IBE 3): significant (p < 0.001) increase
- %Fe 30min (ascorbate oxidation, Fe = 100%), průměr (mean) ([1]; sheet IBE 1, 30min, Fe 100%, mean): 274.4%
- %Fe 30min (ascorbate oxidation, Fe = 100%), single replicates ([1]; sheet IBE 1, 30min, Fe 100%, replicates): 326.6% and 305.9% and 307.7% and 264.1% and 243.3% and 218.6% and 291.9% and 257% and 254.6%
- raw reading at čas 0 (time 0), průměr (mean) ([1]; sheet IBE 1, time 0, mean of 9 readings): 0.8081
- raw reading at čas 0 (time 0), single replicates ([1]; sheet IBE 1, time 0, replicates of 2014-03-24 (two runs) and 2014-03-25): 0.8198 and 0.8003 and 0.8337 and 0.8268 and 0.8308 and 0.7872 and 0.7839 and 0.7637 and 0.8272
- odečet 0 (reading minus time 0 reading) at čas 10, průměr (mean) ([1]; sheet IBE 1, time 10, mean): -0.1075
- raw reading at čas 10 (time 10), průměr (mean) ([1]; sheet IBE 1, time 10, mean of 9 readings): 0.7006
- odečet 0 (reading minus time 0 reading) at čas 10, single replicates [1, 2]: -0.1527 and -0.1456 and -0.1532 and -0.1025 and -0.07863 and -0.05463 and -0.1235 and -0.07821 and -0.07861
- raw reading at čas 10 (time 10), single replicates [1, 2]: 0.681 and 0.6812 and 0.6776 and 0.6847 and 0.7053 and 0.7091 and 0.7037 and 0.7416 and 0.7217
- odečet 0 (reading minus time 0 reading) at čas 20, průměr (mean) ([1]; sheet IBE 1, time 20, mean): -0.1811
- raw reading at čas 20 (time 20), průměr (mean) ([1]; sheet IBE 1, time 20, mean of 9 readings): 0.627
- odečet 0 (reading minus time 0 reading) at čas 20, single replicates [1, 3]: -0.2337 and -0.2156 and -0.2203 and -0.1671 and -0.1458 and -0.1256 and -0.1987 and -0.1601 and -0.163
- raw reading at čas 20 (time 20), single replicates [1, 3]: 0.6 and 0.6112 and 0.6105 and 0.6201 and 0.6381 (2×) and 0.6284 and 0.6597 and 0.6373
- odečet 0 (reading minus time 0 reading) at čas 30, průměr (mean) ([1]; sheet IBE 1, time 30, mean): -0.2442
- raw reading at čas 30 (time 30), průměr (mean) ([1]; sheet IBE 1, time 30, mean of 9 readings): 0.5639
- odečet 0 (reading minus time 0 reading) at čas 30, single replicates [1, 4]: -0.2822 and -0.2643 and -0.2658 and -0.2282 and -0.2102 and -0.1888 and -0.2754 and -0.2425 and -0.2402
- raw reading at čas 30 (time 30), single replicates [1, 4]: 0.5515 and 0.5624 and 0.5649 and 0.5591 and 0.5737 and 0.5749 and 0.5518 and 0.5772 and 0.56
- %Fe 30min (ascorbate oxidation, Fe 100%), průměr ([1]; sheet IBE 3, 30min, Fe alone = 100%, mean (průměr) of the 9 replicates): 278.6%
- %Fe 30min (ascorbate oxidation, Fe 100%) ([1]; sheet IBE 3, 30min, Fe alone = 100%, single replicates): 323.8% and 304.1% and 296.1% and 279.4% and 257.4% and 253.6% and 291.2% and 261% and 240.7%
- Change of absorbance, odečet 0 (time 0 subtracted), čas 10, průměr ([1]; sheet IBE 3, time 10 minus time 0, mean (průměr)): -0.09469
- Change of absorbance, odečet 0 (time 0 subtracted), čas 10 ([1]; sheet IBE 3, time 10 minus time 0, single replicates): -0.1148 and -0.1115 and -0.1009 and -0.09722 and -0.09232 and -0.09642 and -0.1047 and -0.06955 and -0.06465
- Change of absorbance, odečet 0 (time 0 subtracted), čas 20, průměr ([1]; sheet IBE 3, time 20 minus time 0, mean (průměr)): -0.1775
- Change of absorbance, odečet 0 (time 0 subtracted), čas 20 ([1]; sheet IBE 3, time 20 minus time 0, single replicates): -0.2173 and -0.2064 and -0.1913 and -0.1735 and -0.1668 and -0.1578 and -0.1895 and -0.1498 and -0.1449
- Change of absorbance, odečet 0 (time 0 subtracted), čas 30, průměr ([1]; sheet IBE 3, time 30 minus time 0, mean (průměr)): -0.2575
- Change of absorbance, odečet 0 (time 0 subtracted), čas 30 ([1]; sheet IBE 3, time 30 minus time 0, single replicates): -0.3006 and -0.2823 and -0.2749 and -0.2593 and -0.2389 (2×) and -0.2354 and -0.2666 and -0.2203
